According to publication PMC11352273, “The Proapoptotic Action of Pyrrolidinedione–Thiazolidinone Hybrids towards Human Breast Carcinoma Cells Does Not Depend on Their Genotype” (Cancers, 2024):
Values joined by “and” are separate entries in the source; they are usually repeats but may differ in a detail not shown here. Equal entries are not always repeated.

Experiments:
[1] = tested on: MDA-MB-231 cells; test: Annexin V/PI flow cytometry of apoptosis; format: cell-based, human; conditions: MDA-MB-231, 24 h
Experimental: (§1) Cells were washed twice with cold PBS and resuspended in the Binding Buffer from the Kit. The FITC Annexin V and propidium iodide (PI) were added to 100 µL of cell suspension and incubated for 15 min at room temperature, protected from light. Then, 300 µL of Binding Buffer was added, and samples were analyzed using a flow cytometer. A total of 10,000 events were measured. The FACSDiva software (Version 6.1.3, BD Biosciences Systems, San Jose, CA, USA) was applied to analyze all flow cytometry data. The BD Cytometer Setup and Tracking Beads (BD Biosciences, San Diego, CA, USA) were used for the calibration of the flow cytometer.

[2] = tested on: MCF-7 cells; test: Annexin V/PI flow cytometry of apoptosis; format: cell-based, human; conditions: MCF-7, 24 h
Experimental: as §1

[3] = tested on: HCC1954 cells; test: [3H]-thymidine incorporation assay; format: cell-based; conditions: Homo sapiens; HCC1954, 24 h; read-out: IC50 (M ± SD) in [3H]-thymidine assay (DNA synthesis)
Experimental: (§2) Following a 24 h cell treatment, the incorporation of [^3H]-thymidine into the DNA of the breast tumor and normal cells was used to measure the antiproliferative activity of Les-6287. The MCF-7, MDA-MB-231, HCC1954, and MCF-10A cells were seeded into six-well plates (density 3 × 10^5 cells/well) and cultured for 24 h. Then, they were incubated under the same conditions for the next 24 h with a growth medium containing the tested compounds and reference drug (doxorubicin) at different concentrations (1, 2.5, 5, 10, 50 µM). After 24 h, the medium was changed to a fresh one without FBS. A total of 0.5 µCi of tritium-labeled thymidine (specific activity: 7 Ci/mmol) was added to cells for 4 h. The cells were washed with 1 mL of 0.05 M Tris-HCl buffer pH 7.4 containing 0.11 M NaCl and 1 mL of 5% trichloroacetic acid (TCA). Each well was filled with 1 mL of a 0.1 M NaOH solution containing 1% SDS to complete cell lysis. After 5 min, the acquired cell lysates were put into scintillation vials and pre-filled with two milliliters of scintillation liquid. The Scintillation Counter 1900 TR, TRI-CARB (Packard, Perkin Elmer, Inc., San Jose, CA, USA) was used to record the results. The effect of compounds on DNA synthesis was expressed as % of the control (non-treated cells).

[4] = tested on: MCF-10A cells; test: [3H]-thymidine incorporation assay; format: cell-based; conditions: Homo sapiens, 24 h, read-out: IC50 (M ± SD) in [3H]-thymidine assay (DNA synthesis)
Experimental: as §2

[5] = tested on: MDA-MB-231 cells; test: [3H]-thymidine incorporation assay; format: cell-based; conditions: Homo sapiens; MDA-MB-231, 24 h; read-out: IC50 (M ± SD) in [3H]-thymidine assay (DNA synthesis)
Experimental: as §2

[6] = tested on: MMP-2 in MDA-MB-231 cells; test: MMP-2 ELISA in culture supernatants; format: cell-based, human; conditions: MDA-MB-231, 24 h, 2 μM; control 1055.21 pg/mL
Experimental: (§3) In order to determine the Beclin-1 concentration in the cell lysates, the SimpleStep ELISA (Abcam, Cambridge, UK) Kit was used. MMP-2, MMP-9, and ICAM-1 concentrations were measured in culture supernatants using high-sensitivity human SimpleStep ELISA kits (Abcam, Cambridge, UK) according to the manufacturer’s protocols. The LC3B ELISA kit (BT LAB, Shanghai, China) was used to check the protein concentration in cell lysates from analyzed breast cancer cells. The procedure for preparing the samples was shown previously.

[7] = tested on: MMP-2 in MCF-7 cells; test: MMP-2 ELISA in culture supernatants; format: cell-based, human; conditions: MCF-7, 24 h, control 610.57 pg/mL
Experimental: as §3

[8] = tested on: normal human keratinocytes (HaCaT); design: method as in PMID 37579525; conditions: cited from earlier work
[9] = tested on: caspase 8 in MCF-7 cells; test: Caspase-8 activity, FAM-FLICA flow cytometry; format: cell-based, human; conditions: MCF-7, 24 h
Experimental: (§5) The assay was performed following the manufacturer’s instructions and the previously described methodology [25]. […] The cells were gathered, rinsed twice with chilled PBS, and reconstituted in an Apoptosis Wash Buffer. Then, 10 µL of freshly diluted FLICA solution was added to 290 µL of cell suspension and incubated for an hour at 37 °C. Following two rounds of washing with 2 mL of Apoptosis Wash Buffer, the cells were centrifuged, resuspended in 300 µL of the buffer, and then analyzed [25].

[10] = tested on: caspase 3/7 in MCF-7 cells; test: Caspase-3/7 activity, FAM-FLICA flow cytometry; conditions: MCF-7, 24 h
Experimental: as §5

[11] = tested on: HCC1954 cells; test: Clonogenic assay; format: cell-based, human; conditions: for IC50: Homo sapiens, HCC1954, 72 h exposure, 14 days culture, read-out: IC50 (M ± SD) in clonogenic assay
Experimental: (§4) The clonogenic assay was carried out utilizing the previously published methodology. The MCF-7, MDA-MB-231, HCC1954, and MCF-10A cells (500 cells/2 mL) were seeded in a 12-well plate overnight. Afterward, studied derivatives or doxorubicin (1, 2.5, 5, 10, and 50 µM) were added to cells. The media was changed after 72 h to a compound-free one, and the cells were cultured for the following 14 days. Then, the cells were washed, fixed, and stained with 0.1% crystal violet. After washing, the plates were dried at room temperature. The colonies were recorded by ImageJ software (Version 1.30). The value of colonies in control (non-treated cells) was accepted as 100%. The effect of compounds on the colony-forming ability of cells was expressed as the percentage of colonies compared to the control.

[12] = tested on: MDA-MB-231 cells; test: Clonogenic assay; format: cell-based, human; conditions: for IC50: Homo sapiens, MDA-MB-231, 72 h exposure, 14 days culture, read-out: IC50 (M ± SD) in clonogenic assay
Experimental: as §4

[13] = tested on: MCF-7 cells; test: Clonogenic assay; format: cell-based, human; conditions: for IC50: Homo sapiens, MCF7, MCF-7, 72 h exposure, 14 days culture, read-out: IC50 (M ± SD) in clonogenic assay
Experimental: as §4

[14] = tested on: MCF-10A cells; test: Clonogenic assay; format: cell-based; conditions: Homo sapiens; for IC50: 72 h exposure, 14 days culture, read-out: IC50 (M ± SD) in clonogenic assay
Experimental: as §4

IC50 [3] [µM] | IC50 [5] [µM] | IC50 [11] [µM] | IC50 [12] [µM] | IC50 [13] [µM] | SMILES | early apoptotic cells ([1]; 1 µM) [%] | late apoptotic cells ([1]; 1 µM) [%] | necrotic cells ([1]; 1 µM) | early apoptotic cells ([2]; 1 µM) [%] | late apoptotic cells ([2]; 1 µM) [%] | necrotic cells ([2]; 1 µM) | IC50 [4] [µM] | concentration of MMP-2 [6] [pg/mL] | IC50 [14] [µM] | other results
3.67 ± 0.09 | 2.32 ± 0.04 | 0.43 ± 0.11 | 0.42 ± 0.11 | 0.42 ± 0.08 | O=C1CC(N2C(=O)C(=CC(Cl)=Cc3ccc([N+](=O)[O-])cc3)SC2=S)C(=O)N1c1ccc(O)cc1 (centres unmarked) [Les-6287, 1-(4-hydroxyphenyl)-3-[5-[2-chloro-3-(4-nitrophenyl)prop-2-enylidene]-4-oxo-2-thioxothiazolidine-3-yl]pyrrolidine-2,5-dione] | 2.10 ± 0.14 | 5.10 ± 0.49 | 0.90 ± 0.02% | 3.85 ± 1.20 | 21.60 ± 0.78 | 0.50 ± 0.24% | 43.5 ± 1.16 | 711.74 | > 50 | early apoptotic cells ([1]; 1.5 µM): 5.65 ± 0.92%; late apoptotic cells ([1]; 1.5 µM): 29.00 ± 9.76%; necrotic cells ([1]; 1.5 µM): 4.50 ± 1.82%; necrotic cells, range ([1]; 1 and 1.5 µM): 0.90–4.50%; early apoptotic cells ([2]; 1.5 µM): 2.30 ± 0.42%; late apoptotic cells ([2]; 1.5 µM): 29.35 ± 6.43%; necrotic cells ([2]; 1.5 µM): 0.30 ± 0.11%; necrotic cells, range ([2]; 1 and 1.5 µM): 0.30–0.50%; concentration of MMP-2 ([7]; compound concentration not stated (most significant decrease)): 395.91 pg/mL; IC50 [8]: > 73.6 µM; cells with active caspase 8 ([9]; 1 µM): 11.08 ± 1.30%; cells with active caspase 8 ([9]; 1.5 µM): 17.78 ± 5.19%; cells with active caspase 3/7 ([10]; 1 µM): 21.38 ± 1.50%; cells with active caspase 3/7 ([10]; 1.5 µM): 47.08 ± 3.40%; formation of colonies ([11]; HCC1954, compound at 1 µM): totally inhibited; formation of colonies ([12]; MDA-MB-231, compound at 1 µM): totally inhibited; formation of colonies ([13]; MCF-7, compound at 1 µM): totally inhibited; inhibition at 50 µM ([14]; compound at 50 µM, read-out: inhibition of the formation of colonies): 32.6%
1.07 ± 0.04 | 0.63 ± 0.11 | 0.43 ± 0.11 | 0.42 ± 0.11 | 0.42 ± 0.08 | COc1cccc2c1C(=O)c1c(O)c3c(c(O)c1C2=O)C[C@@](O)(C(=O)CO)C[C@@H]3O[C@H]1C[C@H](N)[C@H](O)[C@H](C)O1 [Dox, doxorubicin, reference compound] | 0.10 ± 0.01 | 42.20 ± 17.25 | 51.25 ± 3.36% and 51.25% | 0.55 ± 0.07 | 60.60 ± 7.35 | 31.75 ± 5.59% and 31.75% | 3.19 ± 0.43 | 470.57 | 0.47 ± 0.11 | concentration of MMP-2 ([7]; 2 μM): 425.40 pg/mL
